# Results published in US7273866B2, “2-aryl thiazole derivatives as KCNQ modulators” (Bristol-Myers Squibb Company, priority 2002, dated 2007).
# Tested on: KCNQ channels
# Experiment: Thallium flux assay for KCNQ channel openers
# Format: cell-based
# Conditions: HEK-293 cells stably transfected with a KCNQ family member; for Min. conc. response: minimal active concentration: lowest concentration giving signal amplitude >= four standard deviations of negative controls; for EC50: thallium flux, 10 point concentration series
# Description: Thallium Flux Assay for KCNQ channel Openers. The thallium assay is a modification of that published by Weaver and is referenced in its entirety (Weaver, C. D. WO 02/31508, 2002).
# Approximately 20,000 cells/well of an HEK-293 cell line stably transfected with one of the members of the KCNQ family were plated into clear-bottom, black-walled, poly-D-lysine coated, 384 well assay plates in 20 μl/well of low chloride plating medium. Low chloride plating medium was composed of the following: sodium gluconate, 109 mM; potassium gluconate, 5.4 mM; hemi-calcium gluconate, 3.6 mM; magnesium sulfate, 0.8 mM; sodium bicarbonate, 26.2 mM; sodium phosphate monobasic, 1.2 mM; glutamine, 2 mM; glucose, 5 mM; 4-(2-hydroxyethyl)-1-piperazineethanesulfonic acid (HEPES) (pH 7.3) 10 mM, MEM vitamin solution (10× concentration of vitamins, Gibco/LifeTechnologies 11120-052) and MEM amino acid solution (1× concentration of amino acids, Gibco/LifeTechnologies 11130-051).
# Following overnight incubation in a 5% CO2 incubator at 37° C., the cells in the plates were loaded with 20 μl/well of a dye loading solution containing the commercially available thallium-sensitive fluorescent dye BTC-AM, the acetomethoxy ester of BTC (see U.S. Pat. No. 5,501,980) (2 μM) and pluronic acid F-127 (Molecular Probes P 6867) (0.02% w/v) in chloride free assay buffer. Chloride free assay buffer was composed of the following: sodium gluconate, 140 mM; potassium gluconate, 2.5 mM; hemi-calcium gluconate, 6 mM; hemi-magnesium gluconate, 2 mM; glucose, 5 mM; HEPES (pH 7.3), 10 mM.
# Following incubation in the dye loading solution for from 45-90 min at room temperature, the dye loading solution was removed by aspiration and replaced with 40 μl/well of chloride free assay buffer.
# Prior to addition to cell plates, test compound and standard compounds were dissolved in DMSO to 3 mM concentration. Compounds were then diluted from the 3 mM stock to 100-fold over the final assay concentration in DMSO. Finally, compounds in DMSO were diluted from 100-fold over the final assay concentration to 5-fold over the final assay concentration in chloride free assay buffer.
# Ten μl/well of compounds at 5-fold over the final assay concentration were then added to the cell plates. This represents a 1:5 dilution, yielding the final test concentration. The wells used for test compounds were A1-P20. Wells A21-P22 contained a standard opener and a maximally efficacious concentration (positive control). Wells A23-P24 contained chloride free assay buffer containing 1% DMSO (negative control).
# Following addition of test compounds, the plates were loaded onto the Molecular Devices FLIPR. The 488 nm line of the argon laser was used to excite the BTC and the emission filter was a 540(+/−30) nm. Images were collected at 1 Hz. Ten seconds of baseline were collected and then the FLIPR was used to add 13 μl/well of a stimulus buffer composed of 7.5 mM Tl2SO4 in chloride free assay buffer. Images were collected for an additional 60 seconds.
# For data analysis, the amplitude of the average of the negative controls was subtracted from all wells. The amplitudes of the test compounds were then compared to the value of four standard deviations of the negative control wells. The lowest concentration of a test compound sufficient to generate a signal amplitude greater than or equal to four standard deviations from the amplitude of the negative controls was defined as the minimal active concentration.
# For generating EC50 values, compounds were serially diluted in 1:3 volume increments to produce a 10 point concentration series. EC50 values were calculated by fitting the resulting amplitudes to a single-site logistic equation. EC50 was defined as the concentration of test compound required to yield 50% of the maximal response. Maximal response (Maximal opening) was the largest signal amplitude divided by the negative control amplitude generated by any concentration of a test compound. […]
structure (smiles),measurement,value
"COc1ccccc1-c1nc(C(F)(F)F)c(C(=O)NC(C)c2cccc(N)c2)s1 (centres unmarked) [Example 39, 2-(2-methoxyphenyl)-4-(trifluoromethyl)-N-[1-(3-aminophenyl)ethyl]-5-thiazolecarboxamide]",Min. conc. response,10 µM
same,EC50,1000 to 20000 nM
"COc1ccc(F)cc1-c1nc(C(F)(F)F)c(C(=O)NC(C)c2cccc(N(C)C)c2)s1 (centres unmarked) [Example 42, 2-(5-fluoro-2-methoxyphenyl)-4-(trifluoromethyl)-N-[1-[3-(dimethylamino)phenyl]ethyl]-5-thiazolecarboxamide]",Min. conc. response,10 µM
same,EC50,50 to 1000 nM
CCN(Cc1ccncc1)Cc1ccccc1-c1nc(C(F)(F)F)c(C(=O)NC(C)c2cccc(CN3CCOCC3)c2)s1 (centres unmarked) [Example 116],Min. conc. response,3 µM
"COc1ccc(F)cc1-c1nc(C(F)(F)F)c(C(=O)N[C@@H](C)c2cccc(N3CCOCC3)c2)s1 [Example 47, (S)-2-(5-fluoro-2-methoxyphenyl)-4-(trifluoromethyl)-N-[1-[3-(4-morpholinyl)phenyl]ethyl]-5-thiazolecarboxamide]",Min. conc. response,3 µM
same,EC50,1000 to 20000 nM
CC(NC(=O)c1sc(-c2ccc3c(c2)OCO3)nc1C(F)(F)F)c1cccc(C(F)(F)F)c1 (centres unmarked) [Example 87],Min. conc. response,0.3 µM
CCN(CC)Cc1ccccc1-c1nc(C(F)(F)F)c(C(=O)NC(C)c2cccc(-c3cccnc3)c2)s1 (centres unmarked) [Example 107],Min. conc. response,30 µM
CC(NC(=O)c1sc(-c2cccc(F)c2)nc1C(F)(F)F)c1cccc(C(F)(F)F)c1 (centres unmarked) [Example 92],Min. conc. response,3 µM
COc1ccc(-c2nc(C(F)(F)F)c(C(=O)NC(C)c3ccc(OC)c(OC)c3)s2)cc1OC (centres unmarked) [Example 90],Min. conc. response,10 µM
CC(NC(=O)c1sc(-c2csc3ccccc23)nc1C(F)(F)F)c1cccc(CN2CCCC2)c1 (centres unmarked) [Example 103],Min. conc. response,0.3 µM
"COc1ccc(-c2nc(C(F)(F)F)c(C(=O)NC(C)c3cccc(CN4CCCC4)c3)s2)cc1OC (centres unmarked) [Example 36, 2-(3,4-dimethoxyphenyl)-4-(trifluoromethyl)-N-[1-[3-[(1-pyrrolidinyl)methyl]phenyl]ethyl]-5-thiazolecarboxamide]",Min. conc. response,10 µM
same,EC50,1000 to 20000 nM
"COc1ccc(-c2nc(C(F)(F)F)c(C(=O)N[C@@H](C)c3cccc(N4CCOCC4)c3)s2)c(OC)c1 [Example 31, 2-(2,4-dimethoxyphenyl)-4-(trifluoromethyl)-N-[1-[3-(4-morpholinyl)phenyl]ethyl]-5-thiazolecarboxamide]",Min. conc. response,3 µM
same,EC50,1000 to 20000 nM
CC(NC(=O)c1sc(-c2cccc(N3CCOCC3)c2)nc1C(F)(F)F)c1cccc(C(F)(F)F)c1 (centres unmarked) [Example 98],Min. conc. response,3 µM
"CC(NC(=O)c1sc(-c2ccccc2F)nc1C(F)(F)F)c1cccc(C(F)(F)F)c1 (centres unmarked) [Example 22, 2-(2-fluorophenyl)-4-(trifluoromethyl)-N-[1-[3-(trifluoromethyl)phenyl]ethyl]-5-thiazolecarboxamide]",Min. conc. response,0.3 µM
same,EC50,< 50 nM
CC(NC(=O)c1sc(-c2ccccc2CN(C)C)nc1C(F)(F)F)c1cccc(OC(F)(F)F)c1 (centres unmarked) [Example 74],Min. conc. response,3 µM
same,EC50,1000 to 20000 nM
"COc1ccc(-c2nc(C(F)(F)F)c(C(=O)NC(C)c3cccc(OC(F)(F)F)c3)s2)c(OC)c1 (centres unmarked) [Example 30, 2-(2,4-dimethoxyphenyl)-4-(trifluoromethyl)-N-[1-[3-(trifluoromethoxy)phenyl]ethyl]-5-thiazolecarboxamide]",Min. conc. response,3 µM
same,EC50,50 to 1000 nM
"CCN(Cc1ccncc1)Cc1cccnc1-c1nc(C(F)(F)F)c(C(=O)N[C@@H](C)c2cccc(-c3cccnc3)c2)s1 [Example 69, (S)-2-[3-[(4-pyridinylmethyl)ethylaminomethyl]pyridin-2-yl]-4-(trifluoromethyl)-N-[H-[3-(3-pyridinyl)phenyl]ethyl]-5-thiazolecarboxamide]",Min. conc. response,3 µM
same,EC50,50 to 1000 nM
CCN(CC)Cc1ccccc1-c1nc(C(F)(F)F)c(C(=O)NC(C)c2cccc(CN3CCOCC3)c2)s1 (centres unmarked) [Example 106],Min. conc. response,10 µM
